Measured values published in publication PMC6375636, “Monotherapy with a low-dose lipopeptide HIV fusion inhibitor maintains long-term viral suppression in rhesus macaques” (PLoS Pathogens, 2019).
Where two headings read alike, the source gives them in different places. Peptide text beside a SMILES is read from it. * marks the point of attachment. Stearoyl = CCCCCCCCCCCCCCCCCC(=O)*

**Q.** Which results are given for `CCCCCCCCCCCCCCCCCC(=O)NCCCC[C@H](NC(=O)[C@H](CCC(=O)O)NC(=O)[C@H](CC(C)C)NC(=O)[C@H](CCCCN)NC(=O)[C@H](CCCCN)NC(=O)[C@H](CC(C)C)NC(=O)[C@H](CCC(=O)O)NC(=O)[C@H](CCC(=O)O)NC(=O)[C@H](CCC(=O)O)NC(=O)[C@H](CC(N)=O)NC(=O)[C@H](CCCCN)NC(=O)[C@H](CCCCN)NC(=O)[C@H](CCC(N)=O)NC(=O)[C@H](CCC(N)=O)NC(=O)[C@H](CCC(=O)O)NC(=O)[C@H](CCC(=O)O)NC(=O)[C@H](C)NC(=O)[C@H](CCCCN)NC(=O)[C@H](CCCCN)NC(=O)[C@H](CC(C)C)NC(=O)[C@H](CC(C)C)NC(=O)[C@H](CCC(=O)O)NC(=O)[C@H](CCC(=O)O)NC(=O)[C@@H](NC(=O)[C@H](CCCCN)NC(=O)[C@H](CCC(N)=O)NC(=O)[C@H](CCC(=O)O)NC(=O)[C@H](Cc1c[nH]c2ccccc12)NC(C)=O)[C@@H](C)CC)C(N)=O` [LP-80] (Ac-WEQKIEELLKKAEEQQKKNEEELKKLEK(Stearoyl)-NH2)?
**A.** Injection site reactions (ISRs) (SC 3 mg/kg during the treatment): did not cause significant injection site reactions; TG (after 1st treatment (DPI 263), before (DPI 191) 0.58 ± 0.14): 0.51 ± 0.07 mmol/L; IgA (after 1st treatment (DPI 263), before (DPI 191) 0.93 ± 0.33): 1.05 ± 0.12 g/L; IgM (after 1st treatment (DPI 263), before (DPI 191) 1.28 ± 0.6): 1.12 ± 0.56 g/L; LDL-C (after 1st treatment (DPI 263), before (DPI 191) 1.73 ± 0.44): 1.56 ± 0.37 mmol/L; Ca (after 1st treatment (DPI 263), before (DPI 191) 2.36 ± 0.11): 2.4 ± 0.06 mmol/L; HDL-C (after 1st treatment (DPI 263), before (DPI 191) 2.46 ± 0.07): 1.96 ± 0.26 mmol/L; UA (after 1st treatment (DPI 263), before (DPI 191) 3.08 ± 0.61): 3.25 ± 0.54 µmol/L; GLU (after 1st treatment (DPI 263), before (DPI 191) 4.32 ± 0.32): 5.02 ± 0.98 mmol/L; CHO (after 1st treatment (DPI 263), before (DPI 191) 4.42 ± 0.19): 3.90 ± 0.53 mmol/L; ALP (after 1st treatment (DPI 263), before (DPI 191) 4.6 ± 1.52): 4.2 ± 1.3 U/L; K (after 1st treatment (DPI 263), before (DPI 191) 4.62 ± 0.13): 4.56 ± 0.18 mmol/L; TBIL (after 1st treatment (DPI 263), before (DPI 191) 6.11 ± 1.57): 5.52 ± 0.82 µmol/L; IgG (after 1st treatment (DPI 263), before (DPI 191) 7.12 ± 0.72): 8.6 ± 1.74 g/L; GGT (after 1st treatment (DPI 263), before (DPI 191) 7.4 ± 1.82): 9.2 ± 3.83 U/L; UN (after 1st treatment (DPI 263), before (DPI 191) 8.14 ± 2): 8.38 ± 0.74 mmol/L; AST (after 1st treatment (DPI 263), before (DPI 191) 32.4 ± 3.29): 30.8 ± 3.27 U/L; CK (after 1st treatment (DPI 263), before (DPI 191) 46.4 ± 9.81): 56.6 ± 10.01 U/L; TP (after 1st treatment (DPI 263), before (DPI 191) 74 ± 4.53): 71.26 ± 1.76 g/L; TG (after 2nd treatment (DPI 508), before (DPI 325) 0.67 ± 0.13): 0.62 ± 0.21 mmol/L; IgA (after 2nd treatment (DPI 508), before (DPI 325) 0.76 ± 0.31): 0.86 ± 0.18 g/L; IgM (after 2nd treatment (DPI 508), before (DPI 325) 1.41 ± 0.29): 1.49 ± 0.29 g/L; P (after 2nd treatment (DPI 508), before (DPI 325) 1.74 ± 0.19): 1.29 ± 0.24 mmol/L; HDL-C (after 2nd treatment (DPI 508), before (DPI 325) 2.46 ± 0.31): 2.66 ± 0.45 mmol/L; UA (after 2nd treatment (DPI 508), before (DPI 325) 2.54 ± 0.28): 2.54 ± 0.73 µmol/L; CHO (after 2nd treatment (DPI 508), before (DPI 325) 3.87 ± 0.44): 4.02 ± 0.51 mmol/L; K (after 2nd treatment (DPI 508), before (DPI 325) 4.7 ± 0.2): 4.64 ± 0.26 mmol/L; TBIL (after 2nd treatment (DPI 508), before (DPI 325) 5.92 ± 0.9): 5.52 ± 0.9 µmol/L; UN (after 2nd treatment (DPI 508), before (DPI 325) 9.34 ± 1.26): 7.99 ± 0.92 mmol/L; ALT (after 2nd treatment (DPI 508), before (DPI 325) 12.8 ± 3.27): 13.2 ± 2.86 U/L; AST (after 2nd treatment (DPI 508), before (DPI 325) 27.2 ± 3.11): 31.4 ± 4.45 U/L; CK (after 2nd treatment (DPI 508), before (DPI 325) 54.6 ± 10.74): 55.4 ± 14.19 U/L; Systemic toxicities (blood biochemical parameters, CD4+ and CD8+ T lymphocytes monitored): No systemic toxicities were observed; ALP (rhesus monkey, in vivo): 7.4 ± 2.07 U/L; ALT (rhesus monkey, in vivo): 15.8 ± 3.27 U/L; Ca (rhesus monkey, in vivo): 2.19 ± 0.03 mmol/L; GGT (rhesus monkey, in vivo): 10.4 ± 1.95 U/L; IgG (rhesus monkey, in vivo): 8.52 ± 1.32 g/L; LDH (rhesus monkey, in vivo): 262.8 ± 48.26 U/L; LDL-C (rhesus monkey, in vivo): 1.32 ± 0.32 mmol/L; P (rhesus monkey, in vivo): 0.98 ± 0.07 mmol/L; TP (rhesus monkey, in vivo): 71.15 ± 2.86 g/L
